Assay results reported in patent USRE39862E1, “Unsaturated 14, 15-cyclopropanoandrostanes, a method for their production and pharmaceutical compositions containing these compounds” (Schering AG, priority 2000, dated 2007).

Experiments:
Hershberger test = details: in vivo
[1] = molecular target: T1, androgen receptor of the rat prostate (Rattus norvegicus, UniProt P15207); test: binding to the androgen receptor of the rat prostate (reference substance R 1881); details: reference substance 17β-hydroxy-17α-methyl-estra-4,9,11-triene-3-one (R 1881)
T1 construct: to the androgen receptor of the rat prostate; from tissue; host or cells: rat prostate
T1 sequence (P15207 1-902): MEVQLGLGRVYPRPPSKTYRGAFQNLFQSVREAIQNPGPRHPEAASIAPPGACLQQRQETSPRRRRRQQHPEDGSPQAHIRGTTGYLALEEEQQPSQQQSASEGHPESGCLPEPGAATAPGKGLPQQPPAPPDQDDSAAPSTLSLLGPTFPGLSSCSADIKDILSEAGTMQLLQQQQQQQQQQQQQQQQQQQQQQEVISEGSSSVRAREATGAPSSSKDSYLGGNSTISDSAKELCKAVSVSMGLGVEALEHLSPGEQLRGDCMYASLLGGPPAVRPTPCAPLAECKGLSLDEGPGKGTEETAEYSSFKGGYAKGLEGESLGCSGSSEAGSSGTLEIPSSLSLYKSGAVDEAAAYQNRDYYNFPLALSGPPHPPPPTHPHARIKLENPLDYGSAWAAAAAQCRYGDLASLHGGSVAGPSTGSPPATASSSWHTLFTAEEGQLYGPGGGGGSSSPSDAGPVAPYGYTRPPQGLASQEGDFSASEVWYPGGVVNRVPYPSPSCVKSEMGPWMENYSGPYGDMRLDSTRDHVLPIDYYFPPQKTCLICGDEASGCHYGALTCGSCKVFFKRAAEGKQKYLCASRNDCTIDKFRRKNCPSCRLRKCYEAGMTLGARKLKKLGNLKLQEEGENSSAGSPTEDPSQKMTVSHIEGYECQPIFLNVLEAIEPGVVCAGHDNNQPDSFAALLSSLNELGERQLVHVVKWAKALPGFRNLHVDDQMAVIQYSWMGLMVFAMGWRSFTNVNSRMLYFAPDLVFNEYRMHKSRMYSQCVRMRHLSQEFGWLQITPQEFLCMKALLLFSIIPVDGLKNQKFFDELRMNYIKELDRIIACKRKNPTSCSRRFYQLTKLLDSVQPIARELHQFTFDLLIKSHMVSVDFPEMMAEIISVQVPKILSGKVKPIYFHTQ
Description: The 4-chloro-17β-hydroxy-14α,15α-methylene-androst-4-ene-3-one binds to the extent of 42%±3% to the androgen receptor of the rat prostate (reference substance. 17β-hydroxy-17α-methyl-estra-4,9,11-triene-3-one; R 1881).

[2] = pregnancy maintenance test; details: in vivo
[3] = molecular target: T2, progesterone receptor of the rabbit uterus (Oryctolagus cuniculus, UniProt P06186); test: binding to the progesterone receptor of the rabbit uterus (reference substance progesterone)
T2 construct: from tissue; host or cells: rabbit uterus
T2 sequence (P06186 1-930): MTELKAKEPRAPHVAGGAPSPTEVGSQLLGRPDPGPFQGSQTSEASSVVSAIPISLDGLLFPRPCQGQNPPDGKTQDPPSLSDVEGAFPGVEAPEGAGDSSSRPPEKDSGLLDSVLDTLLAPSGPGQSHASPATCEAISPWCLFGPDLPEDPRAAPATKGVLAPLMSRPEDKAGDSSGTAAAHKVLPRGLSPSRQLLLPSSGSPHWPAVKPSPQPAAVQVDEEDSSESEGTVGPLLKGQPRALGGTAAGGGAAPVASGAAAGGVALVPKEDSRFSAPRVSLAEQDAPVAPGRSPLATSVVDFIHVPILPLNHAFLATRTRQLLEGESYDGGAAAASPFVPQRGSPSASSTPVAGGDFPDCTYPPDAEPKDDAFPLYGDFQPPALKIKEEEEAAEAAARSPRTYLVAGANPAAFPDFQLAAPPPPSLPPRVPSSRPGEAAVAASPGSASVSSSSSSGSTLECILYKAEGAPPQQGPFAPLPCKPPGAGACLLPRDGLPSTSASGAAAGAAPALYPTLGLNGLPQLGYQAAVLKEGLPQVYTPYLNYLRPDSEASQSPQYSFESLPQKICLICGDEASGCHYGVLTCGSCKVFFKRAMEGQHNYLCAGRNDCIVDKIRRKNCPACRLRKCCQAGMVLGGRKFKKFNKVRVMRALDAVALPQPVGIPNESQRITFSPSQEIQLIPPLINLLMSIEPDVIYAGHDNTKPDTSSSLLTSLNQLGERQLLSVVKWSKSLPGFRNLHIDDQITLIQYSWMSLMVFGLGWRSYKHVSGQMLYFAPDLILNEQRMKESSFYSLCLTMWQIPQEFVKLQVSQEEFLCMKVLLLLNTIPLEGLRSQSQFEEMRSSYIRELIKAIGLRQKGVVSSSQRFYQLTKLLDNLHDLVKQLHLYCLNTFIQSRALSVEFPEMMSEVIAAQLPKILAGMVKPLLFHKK

C[C@]12CCC(=O)C(Cl)=C1CC[C@@H]1[C@@H]2CC[C@]2(C)[C@@H](O)C[C@@H]3C[C@]312 [Example 3, 4-Chloro-17β-hydroxy-14α,15α-methylene-androst-4-ene-3-one]
androgenic activity in the Hershberger test (Hershberger test): distinct androgenic activity
binds to the extent of ... to the androgen receptor [1]: 42%±3%
gestagenic activity in the pregnancy maintenance test [2]: hardly any gestagenic activity
binding to the progesterone receptor [3]: practically no binding
